The results in this text go back to PubChem BioAssay AID651870 (NMMLSC, 2012).

This assay deals with AM2.2-beta2AR cells viability, CellTiter-Glo luminescence, 18 h. Put plainly: cell toxicity in β2-adrenergic receptor AM2.2 line, concentration-response, toxicity counterscreen for β2-adrenergic receptor internalization ligand project, cell-based, CellTiter-Glo luminescent readout, Powder Set 4 (AID 651870). For orientation: The purpose of a counterscreen is to sort out artefacts and off-target activity.
Take `CN(CC(=O)N1CCN(c2cccc(C(F)(F)F)c2)CC1)S(=O)(=O)c1ccc(F)cc1`: the EC50 – broadly, the midpoint of the concentration-response curve – is 31.9 µM.

In the case of `CCCCC(=O)Nc1ccc(S(=O)(=O)N2CCCCC2c2cccnc2)cc1` (stereo not drawn), the EC50 was 8.76 µM.

For `Cc1ccc(S(=O)(=O)N2CCCCC2C(=O)N2CCN(c3ccc(C(F)(F)F)cn3)CC2)cc1` (stereo not drawn), the EC50 was 12.8 µM.
